System: Primary cultures of skeletal muscle cells
Test: Primary cultures of skeletal muscle cells treated with GTE and EGCG (MyHC staining, Western blot)
Assay type: cell-based, mice
Conditions: Western blot, myotube cultures treated for 7 days
Procedure: GTE and EGCG also display unexpected pro myogenic properties. Primary cultures of skeletal muscle cells were established from both normal and dystrophic mice and treated with GTE and EGCG for 1-7 days. […] The amount of myotubes reached similar level with both agents compared to control thereafter. Western-blot analysis was performed on myotube cultures treated for 7 days.

Row | SMILES | expression of desmin | expression of muscle-specific proteins (dystrophin in control cultures, sarcomeric alpha actinin, MyHC) | myogenin expression
1 | O=C(O[C@@H]1Cc2c(O)cc(O)cc2O[C@@H]1c1cc(O)c(O)c(O)c1)c1cc(O)c(O)c(O)c1 [EGCG, epigallocatechin gallate] | down-regulated | promoted the expression | unchanged

Same assay, conditions: within the first 2-4 days of application; normal and dystrophic mice cells

Row | SMILES | rate of formation of myotubes (in situ staining of MyHC)
2 | O=C(O[C@@H]1Cc2c(O)cc(O)cc2O[C@@H]1c1cc(O)c(O)c(O)c1)c1cc(O)c(O)c(O)c1 [EGCG, epigallocatechin gallate] | concentration-dependently stimulated

System: Utrophin A promoter linked to a luciferase reporter gene (H2K/mdx/Utro A reporter cell line)
Test: Luciferase reporter assay (murine H2K cells)
Assay type: cell-based
Conditions: Mus musculus; final concentration of 10 μM; incubated for a further 48 hrs
Procedure: The cell line used for the screen is an immortalized mdx mouse H2K cell line that has been stably transfected with a plasmid containing ≈5 kb fragment of the Utrophin A promoter including the first untranslated […] linked to a luciferase reporter gene.
Under conditions of low temperature and interferon containing media, the cells remain as myoblasts. These are plated into 96 well plates and cultured in the presence of compound for three days. The level of luciferase is then determined by cell lysis and reading of the light output from the expressed luciferase gene utilising a plate luminometer.
The H2K/mdx/Utro A reporter cell line was passaged twice a week until ≦30% confluent. The cells were grown at 33° C. in the presence of 10% CO2
To remove the myoblasts for platting, they were incubated with Trypsin/EDTA until the monolayer started to detach.
• DMEM Gibco 41966 • 20% FCS • 1% Pen/Strep • 1% glutamine • 10 mls Chick embryo extract • Interferon(1276 905 Roche) Add fresh 10 μl/50 mls medium
The H2K/mdx/Utro A reporter cell line cells were plated out into 96 well plates (Falcon 353296, white opaque) at a density of approximately 5000 cells/well in 190 μl normal growth medium. The plates were then incubated at 33° C. in the presence of 10% CO2 for 24 hrs.
Compounds were dosed by adding 10 μl of diluted compound to each well giving a final concentration of 10 μM. The plates were then incubated for a further 48 hrs
Cells were then lysed in situ following the manufacture's protocols (Promega Steady-Glo Luciferase Assay System (E2520). Then counted for 10 seconds using a plate luminometer (Victor1420).

Row | SMILES | activity at 10 µM [%]
3 | CC(C)C(=O)Nc1ccc2nn(-c3ccc(Cl)cc3)nc2c1 [Example 37, N-(2-(4-chlorophenyl)-2H-benzo[d][1,2,3]triazol-5-yl)isobutyramide] | > 401
4 | Cc1ccc(-n2nc3cc(C)c(N)cc3n2)cc1 [Example 65, 6-methyl-2-p-tolyl-2H-benzo[d][1,2,3]triazol-5-amine] | 201 to 300
5 | CCN(CC)c1ccc(-n2nc3cc(C)c(NC(=O)c4ccncc4)cc3n2)cc1 [Example 13, N-(2-(4-(diethylamino)phenyl)-6-methyl-2H-benzo[d][1,2,3]triazol-5-yl)isonicotinamide] | 301 to 400
6 | Cc1cc2nn(-c3ccc(Cl)cc3)nc2cc1NC(=O)c1ccco1 [Example 11, N-(2-(4-chlorophenyl)-6-methyl-2H-benzo[d][1,2,3]triazol-5-yl)furan-2-carboxamide] | 201 to 300
7 | CCN(CC)c1ccc(-n2nc3ccc(NC(=O)C(C)C)cc3n2)cc1 [Example 26, N-(2-(4-(diethylamino)phenyl)-2H-benzo[d][1,2,3]triazol-5-yl)isobutyramide] | < 200
8 | CCCC(=O)Nc1cc2nn(-c3ccc(N(CC)CC)cc3)nc2cc1C [Example 15, N-(2-(4-(diethylamino)phenyl)-6-methyl-2H-benzo[d][1,2,3]triazol-5-yl)butyramide] | < 200
9 | Cc1cc2nn(-c3ccc(Cl)cc3)nc2cc1NC(=O)c1ccncc1 [Example 2, N-(2-(4-chlorophenyl)-6-methyl-2H-benzo[d][1,2,3]triazol-5-yl)isonicotinamide] | 201 to 300
10 | CS(=O)(=O)c1ccc2nn(-c3ccc(Cl)cc3)nc2c1 [Example 49, 2-(4-chlorophenyl)-5-(methylsulfonyl)-2H-benzo[d][1,2,3]triazole] | < 200
11 | CN1CCN(c2ccc(-n3nc4ccc(N)cc4n3)cc2)CC1 [Example 42, 2-(4-(4-methylpiperazin-1-yl)phenyl)-2H-benzo[d][1,2,3]triazol-5-amine] | < 200
12 | CCN(CC)c1ccc(-n2nc3ccc(NC(=O)c4ccccc4OC)cc3n2)cc1 [Example 31, N-(2-(4-(diethylamino)phenyl)-2H-benzo[d][1,2,3]triazol-5-yl)-2-methoxybenzamide] | < 200
13 | CCS(=O)(=O)c1ccc2nn(-c3ccc(Cl)c(Cl)c3)nc2c1 [Example 51, 2-(3′,4′-dichlorophenyl)-5-(ethylsulfonyl)-benzotriazole] | 301 to 400
14 | CCN(CC)c1ccc(-n2nc3ccc(NC(=O)c4ccccc4)cc3n2)cc1 [Example 29, N-(2-(4-(diethylamino)phenyl)-2H-benzo[d][1,2,3]triazol-5-yl)benzamide] | < 200
15 | CC(=O)Nc1cc2nn(-c3ccccc3)nc2cc1C [Example 67, N-(6-methyl-2-phenyl-2H-benzo[d][1,2,3]triazol-5-yl)acetamide] | 201 to 300
16 | CCC(=O)Nc1cc2nn(-c3ccc(Cl)cc3)nc2cc1C [Example 7, N-(2-(4-chlorophenyl)-6-methyl-2H-benzo[d][1,2,3]triazol-5-yl)propionamide] | < 200
17 | CCCC(=O)Nc1cc2nn(-c3ccc(Cl)cc3)nc2cc1C [Example 8, N-(2-(4-chlorophenyl)-6-methyl-2H-benzo[d][1,2,3]triazol-5-yl)butyramide] | 201 to 300
18 | CCN(CC)c1ccc(-n2nc3ccc(NC(=O)c4ccco4)cc3n2)cc1 [Example 27, N-(2-(4-(diethylamino)phenyl)-2H-benzo[d][1,2,3]triazol-5-yl)furan-2-carboxamide] | < 200
19 | Cc1cc2nn(-c3ccc(Cl)cc3)nc2cc1NC(=O)c1ccccc1 [Example 3, N-(2-(4-chlorophenyl)-6-methyl-2H-benzo[d][1,2,3]triazol-5-yl)benzamide] | < 200
20 | COc1ccc(-n2nc3cc(C)c(NC(C)=O)cc3n2)cc1 [Example 66, N-(2-(4-methoxyphenyl)-6-methyl-2H-benzo[d][1,2,3]triazol-5-yl)acetamide] | < 200
21 | CC(=O)Nc1ccc2nn(-c3ccc(Cl)cc3)nc2c1 [Example 39, N-(2-(4-chlorophenyl)-2H-benzo[d][1,2,3]triazol-5-yl)acetamide] | > 401
22 | CCN(CC)c1ccc(-n2nc3ccc(NC(=O)c4cccnc4)cc3n2)cc1 [Example 20, N-(2-(4-(diethylamino)phenyl)-2H-benzo[d][1,2,3]triazol-5-yl)nicotinamide] | 201 to 300
23 | CCC(=O)Nc1ccc2nn(-c3ccc(Cl)cc3)nc2c1 [Example 35, N-(2-(4-chlorophenyl)-2H-benzo[d][1,2,3]triazol-5-yl)propionamide] | > 401

System: mdx hearts
Test: not given
Conditions: cited from earlier work

Row | SMILES | myocardial contractile performance
24 | CCCc1nn(C)c2c(=O)[nH]c(-c3cc(S(=O)(=O)N4CCN(C)CC4)ccc3OCC)nc12 [sildenafil] | prevents deterioration
